Where two headings read alike, the source gives them in different places.
Tested on: iCell cardiomyocytes (human iPSC-derived cardiomyocytes)
Assay: High-content imaging of cytotoxicity and mitochondrial integrity in iPSC-CMs
Type: cell-based
Settings: Homo sapiens; for viability at 0.01 µM / activity at 0.01 µM / viability at 0.1 µM / activity at 0.1 µM / viability at 1 µM / activity at 1 µM / viability at 10 µM / activity at 10 µM / viability at 100 µM / activity at 100 µM: Cardiomyocyte, 0.00 µM = 100.00; for viability at 0.1 µM / activity at 0.1 µM: 0.10 µM; for minimal effective concentration: iPSC-CM
How it was run: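 Human iPSC-derived cardiomyocytes were seeded on gelatin-coated 384-well plates at 5,000 cells per well and maintained for 12 d. Test chemicals were added as 10μL of 5× solutions to final concentrations of 0.01 to 100μM. Cells were stained with Hoechst 33342 and MitoTracker™ Orange, fixed in formaldehyde, and imaged by confocal high-content microscopy at 10× magnification.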

`Oc1cc(Cl)cc(-c2cccc(Cl)c2)c1` [5-OH PCB 11] gave a viability at 0.01 µM (1.5 h, read-out: cm.cam.90min) of 91%, an activity at 0.01 µM (1.5 h, read-out: cm.mii.90min) of 117% and an activity at 0.01 µM (1.5 h, read-out: cm.mito.90min) of 90.7%. It also gave a viability at 0.01 µM (1.5 h, read-out: cm.tc.90min) of 91.1%, a viability at 0.1 µM (1.5 h, read-out: cm.cam.90min) of 96.6% and an activity at 0.1 µM (1.5 h, read-out: cm.mii.90min) of 96.6%. It also gave an activity at 0.1 µM (1.5 h, read-out: cm.mito.90min) of 96.4%, a viability at 0.1 µM (1.5 h, read-out: cm.tc.90min) of 96.5% and a viability at 1 µM (1.5 h, read-out: cm.cam.90min) of 99%. The activity at 1 µM (1.5 h, read-out: cm.mii.90min) was 90.6%, the activity at 1 µM (1.5 h, read-out: cm.mito.90min) was 99% and the viability at 1 µM (1.5 h, read-out: cm.tc.90min) was 99%. For the same compound, the viability at 10 µM (1.5 h, read-out: cm.cam.90min) was 98.4%, the activity at 10 µM (1.5 h, read-out: cm.mii.90min) was 108% and the activity at 10 µM (1.5 h, read-out: cm.mito.90min) was 98%. The viability at 10 µM (1.5 h, read-out: cm.tc.90min) was 98%, the viability at 100 µM (1.5 h, read-out: cm.cam.90min) was 0% and the activity at 100 µM (1.5 h, read-out: cm.mii.90min) was 69.7%. It also gave an activity at 100 µM (1.5 h, read-out: cm.mito.90min) of 0.0231%, a viability at 100 µM (1.5 h, read-out: cm.tc.90min) of 0.0231% and a viability at 0.01 µM (24 h, read-out: cm.cam.24hrs) of 99%. For the same compound, the activity at 0.01 µM (24 h, read-out: cm.mii.24hrs) was 95.3%, the activity at 0.01 µM (24 h, read-out: cm.mito.24hrs) was 97% and the viability at 0.01 µM (24 h, read-out: cm.tc.24hrs) was 99.8%. It also gave a viability at 0.1 µM (24 h, read-out: cm.cam.24hrs) of 101%, an activity at 0.1 µM (24 h, read-out: cm.mii.24hrs) of 93.9% and an activity at 0.1 µM (24 h, read-out: cm.mito.24hrs) of 100%. The viability at 0.1 µM (24 h, read-out: cm.tc.24hrs) was 101%, the viability at 1 µM (24 h, read-out: cm.cam.24hrs) was 99.8% and the activity at 1 µM (24 h, read-out: cm.mii.24hrs) was 100%. For the same compound, the activity at 1 µM (24 h, read-out: cm.mito.24hrs) was 97.8%, the viability at 1 µM (24 h, read-out: cm.tc.24hrs) was 99.8% and the viability at 10 µM (24 h, read-out: cm.cam.24hrs) was 98.2%. The activity at 10 µM (24 h, read-out: cm.mii.24hrs) was 81.6%, the activity at 10 µM (24 h, read-out: cm.mito.24hrs) was 98.7% and the viability at 10 µM (24 h, read-out: cm.tc.24hrs) was 97.8%. It also gave a viability at 100 µM (24 h, read-out: cm.cam.24hrs) of 0.0236%, an activity at 100 µM (24 h, read-out: cm.mii.24hrs) of 0% and an activity at 100 µM (24 h, read-out: cm.mito.24hrs) of 0%. The viability at 100 µM (24 h, read-out: cm.tc.24hrs) was 0.0229%, the minimal effective concentration (1.5 h, read-out: cm.cam.90min POD) was 16.2 µM and the minimal effective concentration (1.5 h, read-out: cm.mii.90min POD) was 34.1 µM. It also gave a minimal effective concentration (1.5 h, read-out: cm.mito.90min POD) of 13.8 µM, a minimal effective concentration (1.5 h, read-out: cm.tc.90min POD) of 14 µM and a minimal effective concentration (24 h, read-out: cm.cam.24hrs POD) of 13.8 µM. It also gave a minimal effective concentration (24 h, read-out: cm.mii.24hrs POD) of 8.43 µM, a minimal effective concentration (24 h, read-out: cm.mito.24hrs POD) of 14.6 µM and a minimal effective concentration (24 h, read-out: cm.tc.24hrs POD) of 10.7 µM.

From publication PMC7377239, “Cardiovascular Effects of Polychlorinated Biphenyls and Their Major Metabolites” (Environmental Health Perspectives, 2020)
